Data published in patent US20230147257A1 (DONG-A ST CO., LTD., priority 2020, published 2023).

What follows are molecules tested against T1, AhR (Homo sapiens, UniProt P35869) (assay: In vitro assay 1: XRE-luciferase reporter assay, antagonism in human cell line (HepG2)). Conditions: HepG2 XRE-luciferase, cells treated with kynurenine 50 μM (*), 6 hours; read-out: Assay 1: AhR-Luc Human Antagonism (IC50).
T1 construct: host or cells: HepG2
T1 sequence (P35869 11-848): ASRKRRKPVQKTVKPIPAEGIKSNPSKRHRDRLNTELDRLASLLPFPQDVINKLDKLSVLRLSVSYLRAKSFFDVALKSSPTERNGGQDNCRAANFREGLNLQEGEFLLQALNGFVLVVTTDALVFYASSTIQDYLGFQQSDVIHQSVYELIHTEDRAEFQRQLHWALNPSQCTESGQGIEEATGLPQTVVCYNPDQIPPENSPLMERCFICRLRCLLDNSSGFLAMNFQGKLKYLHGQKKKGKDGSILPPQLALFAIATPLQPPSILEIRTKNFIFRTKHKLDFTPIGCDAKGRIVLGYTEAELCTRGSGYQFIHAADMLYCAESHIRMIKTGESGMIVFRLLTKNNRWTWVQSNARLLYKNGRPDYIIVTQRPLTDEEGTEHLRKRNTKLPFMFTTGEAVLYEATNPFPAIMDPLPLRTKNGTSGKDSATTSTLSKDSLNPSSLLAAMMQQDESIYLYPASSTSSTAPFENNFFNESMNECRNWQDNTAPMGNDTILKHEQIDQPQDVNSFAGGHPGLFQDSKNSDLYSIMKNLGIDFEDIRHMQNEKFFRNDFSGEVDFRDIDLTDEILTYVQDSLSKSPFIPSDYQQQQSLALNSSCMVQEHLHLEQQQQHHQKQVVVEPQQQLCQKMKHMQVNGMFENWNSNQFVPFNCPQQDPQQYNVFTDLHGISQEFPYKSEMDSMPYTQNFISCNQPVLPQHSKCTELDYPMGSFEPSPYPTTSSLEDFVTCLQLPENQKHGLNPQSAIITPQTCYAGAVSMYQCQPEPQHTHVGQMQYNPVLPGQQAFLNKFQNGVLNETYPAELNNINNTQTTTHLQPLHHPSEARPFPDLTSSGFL
Assay type: cell-based
From the text: In Vitro XRE-Luciferase Reporter Assay (In Vitro Assay 1, 2, 3)
AhR activation leads the induction of target gene expression such as CYP1A1 and CYP1B1 by AhR binding to AhR-responsive DNA elements also known as xenobiotics responsive elements (XRE). The assay for measuring AhR activity herein is the luciferase assay using cell lines transfected with luciferase reporter plasmid containing XREs at the upstream of the reporter gene. Cells transfected with XRE-luciferase reporter (XRE-Luc) plasmid drive luciferase activity reflecting activation and inhibition of AhR in the cells. In addition to transfection with XRE-reporter vector, cells were co-transfected with Nano-luciferase reporter gene construct (Nano-Luc) containing constitutively active promoter as internal control. Kynurenine (an endogenous AhR agonist) was used to stimulate cells to test antagonistic properties of the compounds. The half-maximal inhibitory concentration (IC50) or half-maximal effective concentration (EC50) value was calculated using nonlinear regression (four parameters) with Prism8.0 software (GraphPad).
In Vitro Assay 1: Antagonism in Human Cell Line
HepG2 (human hepatoma cell line) cell line with a XRE-luciferase reporter either transiently or stably (Invivogen) were plated in complete medium and incubated at 37° C. in a CO2 incubator. After 24 hours, cells were treated with kynurenine (50* or 200 μM) alone (negative control) or with test compounds for 6 hours. Luciferase activity was measured with a commercial kit such as the Promega Luciferase kit or other reagents for measuring luciferase activity. Relative luciferase activity (Firefly/Nano-Luc) was used to calculate IC50 values. The relative luciferase activity was further normalized with kynurenine alone group as the maximum control and the vehicle group as the minimum control. (IC50 values are grouped as A, B, C and D, whereby A: IC50<0.01 μM; B: 0.01<IC50<0.1 μM; C: 0.1<IC50<1.0 μM; D: IC50>1.0 μM)

| SMILES | IC50 [nM] |
| --- | --- |
| CC(CO)n1cnc2c(-c3ccc(C(F)(F)F)cc3)nc(-c3ccc(C(F)(F)F)cc3)cc2c1=O (centres unmarked) [Example 6, 3-(1-hydroxypropan-2-yl)-6,8-bis(4-(trifluoromethyl)phenyl)pyrido[3,4-d]pyrimidin-4(3H)-one] | 100 to 1000 |
| Cn1cc(-c2cc3c(=O)n(C4CCCC(O)C4)cnc3c(-c3cnn(C)c3)n2)cn1 (centres unmarked) [Example 2, 3-(3-hydroxycyclohexyl)-6,8-bis(1-methyl-1H-pyrazol-4-yl)pyrido[3,4-d]pyrimidin-4(3H)-one] | 100 to 1000 |
| CC(O)Cn1cnc2c(-c3cnn(C)c3)nc(-c3ccc(Cl)cc3)cc2c1=O (centres unmarked) [Example 13, 6-(4-chlorophenyl)-3-(2-hydroxypropyl)-8-(1-methyl-1H-pyrazol-4-yl)pyrido[3,4-d]pyrimidin-4(3H)-one] | < 10 |
| CC(O)Cn1cnc2c(-c3cnn(C)c3)nc(-c3cnn(C)c3)cc2c1=O (centres unmarked) [Example 11, 3-(2-hydroxypropyl)-6,8-bis(1-methyl-1H-pyrazol-4-yl)pyrido[3,4-d]pyrimidin-4(3H)-one] | 100 to 1000 |
| CCC(CO)n1cnc2c(-c3cnn(C)c3)nc(-c3ccc(C(F)(F)F)cc3)cc2c1=O (centres unmarked) [Example 54, 3-(1-hydroxybutan-2-yl)-8-(1-methyl-1H-pyrazol-4-yl)-6-(4-(trifluoromethyl)phenyl)pyrido[3,4-d]pyrimidin-4(3H)-one] | > 1000 |

More lines, now with the values ahead:

| IC50 [nM] | SMILES |
| --- | --- |
| > 1000 | CC(CO)n1cnc2c(-c3ccc(C(F)(F)F)cc3)nc(-c3cnn(C)c3)cc2c1=O (centres unmarked) [Example 4, 3-(1-hydroxypropan-2-yl)-6-(1-methyl-1H-pyrazol-4-yl)-8-(4-(trifluoromethyl)phenyl)pyrido[3,4-d]pyrimidin-4(3H)-one] |
| > 1000 | CC(CO)n1cnc2c(-c3ccc(Cl)cc3)nc(-c3cccnc3)cc2c1=O (centres unmarked) [Example 5, 8-(4-chlorophenyl)-3-(1-hydroxypropan-2-yl)-6-(pyridin-3-yl)pyrido[3,4-d]pyrimidin-4(3H)-one] |

Same assay, conditions: HepG2 XRE-luciferase, cells treated with kynurenine 200 μM (no *), 6 hours; read-out: Assay 1: AhR-Luc Human Antagonism (IC50)

| SMILES | IC50 [nM] |
| --- | --- |
| CC(C)(O)Cn1cnc2c(-c3cccnc3)nc(-c3ccc(C(F)(F)F)nc3)cc2c1=O [Example 40, 3-(2-hydroxy-2-methylpropyl)-8-(pyridin-3-yl)-6-(6-(trifluoromethyl)pyridin-3-yl)pyrido[3,4-d]pyrimidin-4(3H)-one] | < 10 |
| Cn1cc(-c2nc(-c3ccc(Cl)cc3)cc3c(=O)n(-c4cccc(O)c4)cnc23)cn1 [Example 26, 6-(4-chlorophenyl)-3-(3-hydroxyphenyl)-8-(1-methyl-1H-pyrazol-4-yl)pyrido[3,4-d]pyrimidin-4(3H)-one] | 10 to 100 |
| O=c1c2cc(-c3ccc(C(F)(F)F)cc3)nc(-c3cccnc3)c2ncn1C1CCNCC1 [Example 93, 3-(piperidin-4-yl)-8-(pyridin-3-yl)-6-(4-(trifluoromethyl)phenyl)pyrido[3,4-d]pyrimidin-4(3H)-one] | < 10 |
| O=c1c2cc(-c3ccc(N4CCOCC4)cc3)nc(-c3cccnc3)c2ncn1[C@@H]1CC[C@H](O)C1 [Example 73, 3-((1R,3S)-3-hydroxycyclopentyl)-6-(4-morpholinophenyl)-8-(pyridin-3-yl)pyrido[3,4-d]pyrimidin-4(3H)-one] | < 10 |
| CS(=O)(=O)CCn1cnc2c(-c3cccnc3)nc(-c3ccc(N4CCOCC4)cc3)cc2c1=O [Example 79, 3-(2-(methylsulfonyl)ethyl)-6-(4-morpholinophenyl)-8-(pyridin-3-yl)pyrido[3,4-d]pyrimidin-4(3H)-one] | < 10 |
| O=c1c2cc(-c3ccc(C(F)(F)F)nc3)nc(-c3cccnc3)c2ncn1[C@@H]1CC[C@H](O)C1 [Example 65, 3-((1R,3S)-3-hydroxycyclopentyl)-8-(pyridin-3-yl)-6-(6-(trifluoromethyl)pyridin-3-yl)pyrido[3,4-d]pyrimidin-4(3H)-one] | < 10 |
| Cn1cc(-c2nc(-c3ccc(C(F)(F)F)cc3)cc3c(=O)n([C@H]4CC[C@@H](O)C4)cnc23)cn1 [Example 35, 3-((1S,3R)-3-hydroxycyclopentyl)-8-(1-methyl-1H-pyrazol-4-yl)-6-(4-(trifluoromethyl)phenyl)pyrido[3,4-d]pyrimidin-4(3H)-one] | < 10 |
| Cn1cc(-c2nc(-c3ccc(Cl)cc3)cc3c(=O)n([C@H]4CC[C@@H](O)C4)cnc23)cn1 [Example 34, 6-(4-chlorophenyl)-3-((1S,3R)-3-hydroxycyclopentyl)-8-(1-methyl-1H-pyrazol-4-yl)pyrido[3,4-d]pyrimidin-4(3H)-one] | < 10 |
| Cn1cc(-c2nc(-c3ccc(Cl)cc3)cc3c(=O)n([C@H]4CCCC[C@H]4O)cnc23)cn1 [Example 20, 6-(4-chlorophenyl)-3-((1S,2R)-2-hydroxycyclohexyl)-8-(1-methyl-1H-pyrazol-4-yl)pyrido[3,4-d]pyrimidin-4(3H)-one] | > 1000 |
| Cn1cc(-c2nc(-c3ccc(Cl)cc3)cc3c(=O)n(CC(O)C(F)(F)F)cnc23)cn1 (centres unmarked) [Example 23, 6-(4-chlorophenyl)-8-(1-methyl-1H-pyrazol-4-yl)-3-(3,3,3-trifluoro-2-hydroxypropyl)pyrido[3,4-d]pyrimidin-4(3H)-one] | < 10 |

More lines, now with the values ahead:

| IC50 [nM] | SMILES |
| --- | --- |
| < 10 | O=c1c2cc(-c3ccc(Cl)cc3)nc(-c3cccnc3)c2ncn1[C@@H]1CC[C@H](O)C1 [Example 28, 6-(4-chlorophenyl)-3-((1R,3S)-3-hydroxycyclopentyl)-8-(pyridin-3-yl)pyrido[3,4-d]pyrimidin-4(3H)-one] |
| 100 to 1000 | CC(CN)n1cnc2c(-c3cccnc3)nc(-c3ccc(N4CCOCC4)cc3)cc2c1=O (centres unmarked) [Example 90, 3-(1-aminopropan-2-yl)-6-(4-morpholinophenyl)-8-(pyridin-3-yl)pyrido[3,4-d]pyrimidin-4(3H)-one] |
| 10 to 100 | CC(=O)OC(C)(C)Cn1cnc2c(-c3cccnc3)nc(-c3ccc(Cl)cc3)cc2c1=O [Example 36, 1-(6-(4-chlorophenyl)-4-oxo-8-(pyridin-3-yl)pyrido[3,4-d]pyrimidin-3(4H)-yl)-2-methylpropan-2-yl acetate] |
| > 1000 | CC(C)C(CO)n1cnc2c(-c3cccnc3)nc(-c3ccc(C(F)(F)F)cc3)cc2c1=O (centres unmarked) [Example 42, 3-(1-hydroxy-3-methylbutan-2-yl)-8-(pyridin-3-yl)-6-(4-(trifluoromethyl)phenyl)pyrido[3,4-d]pyrimidin-4(3H)-one] |
| > 1000 | O=c1c2cc(-c3ccc(Cl)cc3)nc(-c3cccnc3)c2ncn1[C@H]1CCCC[C@H]1O [Example 21] |
| < 10 | O=c1c2cc(-c3ccc(Cl)cc3)nc(-c3cccnc3)c2ncn1-c1cccc(O)c1 [Example 61, 6-(4-chlorophenyl)-3-(3-hydroxyphenyl)-8-(pyridin-3-yl)pyrido[3,4-d]pyrimidin-4(3H)-one] |
| < 10 | O=c1c2cc(-c3ccc(C(F)(F)F)cc3)nc(-c3cccnc3)c2ncn1C[C@@H](O)CO [Example 81, (R)-3-(2,3-dihydroxypropyl)-8-(pyridin-3-yl)-6-(4-(trifluoromethyl)phenyl)pyrido[3,4-d]pyrimidin-4(3H)-one] |
| > 1000 | CC(C)C(CO)n1cnc2c(-c3cccnc3)nc(-c3ccc(C(F)(F)F)nc3)cc2c1=O (centres unmarked) [Example 43, 3-(1-hydroxy-3-methylbutan-2-yl)-8-(pyridin-3-yl)-6-(6-(trifluoromethyl)pyridin-3-yl)pyrido[3,4-d]pyrimidin-4(3H)-one] |
| > 1000 | CC(C)C(CO)n1cnc2c(-c3cccnc3)nc(-c3ccc(Cl)cc3)cc2c1=O (centres unmarked) [Example 41, 6-(4-chlorophenyl)-3-(1-hydroxy-3-methylbutan-2-yl)-8-(pyridin-3-yl)pyrido[3,4-d]pyrimidin-4(3H)-one] |
